Results from PubChem BioAssay (NCI).
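These data come from cells grown in 96-well plates and exposed to compound for 48 hours at five concentrations. The concentration for full growth arrest is given as TGI.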

How the values were obtained:
Test in all cases: inhibition of tumour cell growth, NCI panel, 48 h
[1] = tested on: SNB-19 CNS
[2] = tested on: OVCAR-8 ovarian
[3] = tested on: A498 renal
[4] = tested on: M14 melanoma
[5] = tested on: OVCAR-5 ovarian
[6] = tested on: RXF 393 renal
[7] = tested on: HCT-116 colon
[8] = tested on: HL-60(TB) leukemia
[9] = tested on: EKVX NSCLC
[10] = tested on: A549 NSCLC
[11] = tested on: T-47D breast
[12] = tested on: SK-OV-3 ovarian
[13] = tested on: RPMI-8226 leukemia
[14] = tested on: SR leukemia
[15] = tested on: SNB-75 CNS
[16] = tested on: SK-MEL-2 melanoma
[17] = tested on: LOX IMVI melanoma
[18] = tested on: NCI-H460 lung
[19] = tested on: HOP-92 NSCLC
[20] = tested on: U251 CNS
[21] = tested on: UO-31 renal
[22] = tested on: MDA-MB-435
[23] = tested on: SF-539 CNS
[24] = tested on: NCI-H522 lung
[25] = tested on: MDA-MB-231 breast
[26] = tested on: DU-145 prostate
[27] = tested on: TK-10 renal
[28] = tested on: HS 578T breast
[29] = tested on: HCT-15 colon
[30] = tested on: CAKI-1 renal
[31] = tested on: MCF7 breast
[32] = tested on: IGROV1 ovarian
[33] = tested on: SW-620 colon
[34] = tested on: K-562 leukemia
[35] = tested on: SF-295 CNS
[36] = tested on: HOP-62 NSCLC
[37] = tested on: NCI-H23 lung
[38] = tested on: HT29 colon
[39] = tested on: PC-3 prostate
[40] = tested on: MDA-N
[41] = tested on: CCRF-CEM leukemia
[42] = tested on: SK-MEL-5 melanoma
[43] = tested on: 786-0 renal
[44] = tested on: OVCAR-3 ovarian
[45] = tested on: ACHN renal
[46] = tested on: NCI/ADR-RES ovarian
[47] = tested on: MOLT-4 leukemia
[48] = tested on: MALME-3M melanoma
[49] = tested on: UACC-257 melanoma
[50] = tested on: OVCAR-4 ovarian
[51] = tested on: SF-268 CNS
[52] = tested on: HCC-2998 colon
[53] = tested on: BT-549 breast
[54] = tested on: KM12 colon
[55] = tested on: SK-MEL-28 melanoma
[56] = tested on: COLO 205 colon
[57] = tested on: UACC-62 melanoma
[58] = tested on: NCI-H226 lung
[59] = tested on: SN12C renal

## Cc1ccc2c(c1)C(=O)C1(C2)Cc2ccc(C)cc2C1=O
[1]
  TGI: > 100 µM
[2]
  TGI: > 100 µM
[3]
  TGI: > 100 µM
[4]
  TGI: > 100 µM
[5]
  TGI: > 100 µM
[6]
  TGI: > 100 µM
[7]
  TGI: > 100 µM
[8]
  TGI: > 100 µM
[9]
  TGI: > 100 µM
[10]
  TGI: > 100 µM
[11]
  TGI: > 100 µM
[12]
  TGI: > 100 µM
[13]
  TGI: > 100 µM
[14]
  TGI: > 100 µM
[15]
  TGI: > 100 µM
[16]
  TGI: > 100 µM
[17]
  TGI: > 100 µM
[18]
  TGI: > 100 µM
[19]
  TGI: > 100 µM
[20]
  TGI: > 100 µM
[21]
  TGI: > 100 µM
[22]
  TGI: > 100 µM
[23]
  TGI: > 100 µM
[24]
  TGI: > 100 µM
[25]
  TGI: > 100 µM
[26]
  TGI: > 100 µM
[27]
  TGI: > 100 µM
[28]
  TGI: > 100 µM
[29]
  TGI: > 100 µM
[30]
  TGI: > 100 µM
[31]
  TGI: > 100 µM
[32]
  TGI: > 100 µM
[33]
  TGI: > 100 µM
[34]
  TGI: > 100 µM
[35]
  TGI: > 100 µM
[36]
  TGI: > 100 µM
[37]
  TGI: > 100 µM
[38]
  TGI: > 100 µM
[39]
  TGI: > 100 µM
[40]
  TGI: > 100 µM
[41]
  TGI: > 100 µM
[42]
  TGI: > 100 µM
[43]
  TGI: > 100 µM
[44]
  TGI: > 100 µM
[45]
  TGI: > 100 µM
[46]
  TGI: > 100 µM
[47]
  TGI: > 100 µM
[48]
  TGI: > 100 µM
[49]
  TGI: > 100 µM
[50]
  TGI: > 100 µM
[51]
  TGI: > 100 µM
[52]
  TGI: > 100 µM

## Cc1cc(Cl)ccc1OCC(=O)Oc1c(Cl)c(Cl)c(Cl)c(Cl)c1Cl
[53]
  TGI: > 100 µM
[1]
  TGI: 75.5 µM
[2]
  TGI: 66.8 µM
[3]
  TGI: 62.9 µM
[4]
  TGI: 71.4 µM
[5]
  TGI: 59.2 µM
[6]
  TGI: 37.3 µM
[7]
  TGI: 45.8 µM
[8]
  TGI: > 100 µM
[9]
  TGI: 56.4 µM
[10]
  TGI: 66.3 µM
[12]
  TGI: 83.8 µM
[54]
  TGI: 52.4 µM
[13]
  TGI: 61.7 µM
[14]
  TGI: 60 µM
[55]
  TGI: > 100 µM
[15]
  TGI: 62.6 µM
[56]
  TGI: 78 µM
[16]
  TGI: 67.7 µM
[17]
  TGI: 51.6 µM
[18]
  TGI: 51.9 µM
[19]
  TGI: 40 µM
[20]
  TGI: 70.4 µM
[21]
  TGI: 32 µM
[22]
  TGI: 68.9 µM
[23]
  TGI: > 100 µM
[24]
  TGI: 48.4 µM
[25]
  TGI: 38.1 µM
[26]
  TGI: 49.2 µM
[27]
  TGI: 69.1 µM
[28]
  TGI: 66.3 µM
[29]
  TGI: 71.7 µM
[30]
  TGI: > 100 µM
[31]
  TGI: 96.7 µM
[32]
  TGI: 79.5 µM
[33]
  TGI: > 100 µM
[34]
  TGI: > 100 µM
[35]
  TGI: 67.9 µM
[36]
  TGI: 47.2 µM
[37]
  TGI: 95.5 µM
[57]
  TGI: 46.6 µM
[58]
  TGI: 53.8 µM
[38]
  TGI: 69.1 µM
[39]
  TGI: 80.1 µM
[40]
  TGI: 74.5 µM
[42]
  TGI: 61.9 µM
[43]
  TGI: 85.5 µM
[44]
  TGI: 39 µM
[45]
  TGI: > 100 µM
[46]
  TGI: 67.6 µM
[48]
  TGI: 45.3 µM
[49]
  TGI: 45.3 µM
[59]
  TGI: 62.9 µM
[50]
  TGI: 92.1 µM
[51]
  TGI: > 100 µM
[52]
  TGI: 48.9 µM

## S=C1SC2(CCCCCC2)NC2=C1CCCCC2
[1]
  TGI: 87.5 µM
[2]
  TGI: > 100 µM
[4]
  TGI: > 100 µM
[5]
  TGI: > 100 µM
[6]
  TGI: > 100 µM
[7]
  TGI: > 100 µM
[8]
  TGI: 38.5 µM
[9]
  TGI: 44.2 µM
[10]
  TGI: > 100 µM
[11]
  TGI: > 100 µM
[12]
  TGI: > 100 µM
[54]
  TGI: > 100 µM
[13]
  TGI: 69.3 µM
[14]
  TGI: 80.4 µM
[55]
  TGI: > 100 µM
[15]
  TGI: 81.8 µM
[56]
  TGI: 35.8 µM
[16]
  TGI: 47.4 µM
[17]
  TGI: > 100 µM
[18]
  TGI: 77.9 µM
[19]
  TGI: 67.3 µM
[20]
  TGI: > 100 µM
[21]
  TGI: 60.1 µM
[22]
  TGI: > 100 µM
[23]
  TGI: > 100 µM
[25]
  TGI: > 100 µM
[26]
  TGI: > 100 µM
[27]
  TGI: > 100 µM
[28]
  TGI: 47.6 µM
[29]
  TGI: > 100 µM
[30]
  TGI: > 100 µM
[31]
  TGI: 65 µM
[32]
  TGI: > 100 µM
[33]
  TGI: > 100 µM
[34]
  TGI: > 100 µM
[35]
  TGI: 99 µM
[36]
  TGI: > 100 µM
[37]
  TGI: > 100 µM
[57]
  TGI: > 100 µM
[58]
  TGI: 52.4 µM
[38]
  TGI: > 100 µM
[39]
  TGI: > 100 µM
[40]
  TGI: > 100 µM
[41]
  TGI: > 100 µM
[42]
  TGI: 43.2 µM
[43]
  TGI: > 100 µM
[44]
  TGI: > 100 µM
[45]
  TGI: > 100 µM
[46]
  TGI: > 100 µM
[47]
  TGI: 66.8 µM
[48]
  TGI: > 100 µM
[49]
  TGI: 67.1 µM
[59]
  TGI: > 100 µM
[50]
  TGI: > 100 µM
[51]
  TGI: > 100 µM
[52]
  TGI: > 100 µM

## N=c1nc(N)nc(N)n1-c1ccc(S(N)(=O)=O)cc1
[53]
  TGI: > 100 µM
[1]
  TGI: > 100 µM
[2]
  TGI: > 100 µM
[3]
  TGI: > 100 µM
[4]
  TGI: > 100 µM
[5]
  TGI: > 100 µM
[6]
  TGI: > 100 µM
[7]
  TGI: > 100 µM
[8]
  TGI: > 100 µM
[9]
  TGI: > 100 µM
[10]
  TGI: > 100 µM
[11]
  TGI: > 100 µM
[54]
  TGI: > 100 µM
[14]
  TGI: > 100 µM
[55]
  TGI: > 100 µM
[16]
  TGI: > 100 µM
[17]
  TGI: > 100 µM
[18]
  TGI: > 100 µM
[19]
  TGI: > 100 µM
[20]
  TGI: > 100 µM
[21]
  TGI: > 100 µM
[22]
  TGI: > 100 µM
[24]
  TGI: > 100 µM
[25]
  TGI: > 100 µM
[26]
  TGI: > 100 µM
[27]
  TGI: > 100 µM
[29]
  TGI: > 100 µM
[30]
  TGI: > 100 µM
[32]
  TGI: > 100 µM
[33]
  TGI: > 100 µM
[34]
  TGI: > 100 µM
[35]
  TGI: > 100 µM
[36]
  TGI: > 100 µM
[37]
  TGI: > 100 µM
[57]
  TGI: > 100 µM
[58]
  TGI: > 100 µM
[38]
  TGI: > 100 µM
[39]
  TGI: > 100 µM
[40]
  TGI: > 100 µM
[41]
  TGI: > 100 µM
[42]
  TGI: > 100 µM
[43]
  TGI: > 100 µM
[44]
  TGI: > 100 µM
[45]
  TGI: > 100 µM
[46]
  TGI: > 100 µM
[47]
  TGI: > 100 µM
[48]
  TGI: > 100 µM
[49]
  TGI: > 100 µM
[59]
  TGI: > 100 µM
[50]
  TGI: > 100 µM
[51]
  TGI: > 100 µM
